{
  "source": "patent US20240350597A1",
  "about": "“PROTEASE INHIBITORS” (University College Dublin, priority 2023, published 2024)",
  "system": "SARS-CoV-2 (WT, D614G)",
  "format": "cell-based",
  "details": "50 µM",
  "data": [
    {"substance": "alpha-1-antitrypsin [A1AT]", "values": [
      {"measurement": "inhibition of SARS-CoV-2 replication / infection", "value": 45, "unit": "%"}
    ]}
  ]
}
